In patent US10105357B2, “Indication of antibiotic drugs for preparation of cancer inhibition pharmaceutical composition” (LAUNX BIOMEDICAL CO., LTD., priority 2014, dated 2018):
Counter-ions that a name gives are not always drawn. Like-named read-outs stand apart in the source and are kept apart here.

Key:
Format in all cases: cell-based, human
[1] = system: PC3 (p53−) (Prostate Adenocarcinoma); test: Cell viability analysis, prostate cancer PC3; conditions: Homo sapiens, 72 h
[2] = system: HepG2 (Hepatocellular Carcinoma); test: Cell viability analysis, hepatic cancer HepG2; conditions: Homo sapiens, HepG2, 72 h
[3] = system: A549 (Lung Adenocarcinoma); test: Cell viability analysis, lung cancer A549; conditions: Homo sapiens, A549, 72 h
[4] = system: HL-60 (Acute Promyelocytic Leukemia); test: Cell viability analysis, leukemia HL-60; conditions: Homo sapiens, HL-60, 72 h
[5] = system: A375 (Amelanotic Melanoma); test: Cell viability analysis, skin cancer A375; conditions: Homo sapiens, A-375, 72 h
cancer cell lines = test: Cell viability analysis (WST-1) on cancer cell lines; conditions: drug 10 μM, 72 hours, WST-1; Table 3
[6] = system: LoVo (Colorectal Adenocarcinoma); test: Cell viability analysis, colon cancer LoVo; conditions: Homo sapiens, LoVo, 72 h, read-out: cell viability (survival rate), LoVo, drug 10 μM, 72 hours, WST-1, OD450 nm
[7] = system: AGS (Gastric Adenocarcinoma); test: Cell viability analysis, gastric cancer AGS; conditions: Homo sapiens, 72 h
[8] = system: MCF7 (Mammary Gland, Adenocarcinoma); test: Cell viability analysis, breast cancer MCF7; conditions: Homo sapiens, MCF7, 72 h
[9] = system: TSGH-8301 (Urinary Bladder Carcinoma); test: Cell viability analysis, bladder cancer TSGH-8301; conditions: Homo sapiens, 72 h
[10] = system: HeLa (Cervix Adenocarcinoma); test: Cell viability analysis, cervical cancer HeLa; conditions: Homo sapiens, HeLa, 72 h
[11] = system: MKN-45 (Gastric Adenocarcinoma); test: Cell viability analysis, gastric cancer MKN-45; conditions: Homo sapiens, MKN-45, 72 h
[12] = system: HI650 (Lung Adenocarcinoma); test: Cell viability analysis, lung cancer HI650; conditions: Homo sapiens, NCI-H1650, 72 h
[13] = read-out: cell viability (survival rate), PC3, drug 10 μM, 72 hours, WST-1, OD450 nm
[14] = read-out: cell viability (survival rate), HepG2, drug 10 μM, 72 hours, WST-1, OD450 nm
[15] = read-out: cell viability (survival rate), A549, drug 10 μM, 72 hours, WST-1, OD450 nm
[16] = read-out: cell viability (survival rate), HL-60, drug 10 μM, 72 hours, WST-1, OD450 nm
[17] = read-out: cell viability (survival rate), A375, drug 10 μM, 72 hours, WST-1, OD450 nm
[18] = read-out: cell viability (survival rate), AGS, drug 10 μM, 72 hours, WST-1, OD450 nm
[19] = read-out: cell viability (survival rate), MCF7, drug 10 μM, 72 hours, WST-1, OD450 nm
[20] = read-out: cell viability (survival rate), TSGH, drug 10 μM, 72 hours, WST-1, OD450 nm
[21] = read-out: cell viability (survival rate), HeLa, drug 10 μM, 72 hours, WST-1, OD450 nm
[22] = read-out: cell viability (survival rate), MKN-45, drug 10 μM, 72 hours, WST-1, OD450 nm
[23] = read-out: cell viability (survival rate), H1650, drug 10 μM, 72 hours, WST-1, OD450 nm
[24] = drug 10 μM, 72 hours, WST-1, OD450 nm, read-out: cell viability (survival rate), PC3
[25] = drug 10 μM, 72 hours, WST-1, OD450 nm, read-out: cell viability (survival rate), HepG2
[26] = drug 10 μM, 72 hours, WST-1, OD450 nm, read-out: cell viability (survival rate), A549
[27] = drug 10 μM, 72 hours, WST-1, OD450 nm, read-out: cell viability (survival rate), HL-60
[28] = drug 10 μM, 72 hours, WST-1, OD450 nm, read-out: cell viability (survival rate), A375
[29] = drug 10 μM, 72 hours, WST-1, OD450 nm, read-out: cell viability (survival rate), AGS
[30] = drug 10 μM, 72 hours, WST-1, OD450 nm, read-out: cell viability (survival rate), MCF7
[31] = drug 10 μM, 72 hours, WST-1, OD450 nm, read-out: cell viability (survival rate), TSGH
[32] = drug 10 μM, 72 hours, WST-1, OD450 nm, read-out: cell viability (survival rate), HeLa
[33] = drug 10 μM, 72 hours, WST-1, OD450 nm, read-out: cell viability (survival rate), MKN-45
[34] = drug 10 μM, 72 hours, WST-1, OD450 nm, read-out: cell viability (survival rate), H1650

Structure (SMILES) | viability at 10 µM [1, 13] | viability at 10 µM [2, 14] | viability at 10 µM [3, 15] | viability at 10 µM [4, 16] | viability at 10 µM [5, 17] | inhibition effect on different cancer cell lines (cancer cell lines) | viability at 10 µM [6] | viability at 10 µM [7, 18] | viability at 10 µM [8, 19] | viability at 10 µM [9, 20] | viability at 10 µM [10, 21] | viability at 10 µM [11, 22] | viability at 10 µM [12, 23] | viability at 10 µM [1, 24] | viability at 10 µM [2, 25] | viability at 10 µM [3, 26] | viability at 10 µM [4, 27] | viability at 10 µM [5, 28] | viability at 10 µM [7, 29] | viability at 10 µM [8, 30] | also measured
Clc1cccc(Cl)c1N=C1NCCN1 [Clonidine hydrochloride (Catapres), Clonidine hydrochloride] | 40.7% | 83.7% | 37.3% | 128% | 62.5% | significant inhibition effect | 72.1% | 36.4% | 68.8% | 28.5% | 72% | 48.8% | 64.1% |  |  |  |  |  |  |  | 
Nc1ccc(S(=O)(=O)Nc2ncccn2)cc1 [Sulfadiazine] | 70.1% | 114% | 38.1% | 106% | 79.5% | significant inhibition effect | 93.6% | 91.8% | 37.2% | 80.4% | 43.7% | 44.4% | 69.2% |  |  |  |  |  |  |  | 
CCCc1cc(C(N)=S)ccn1 [Protionamide (Prothionamide), Protionamide] |  |  |  |  |  | significant inhibition effect | 85.6% |  |  |  |  |  |  | 45.2% | 118% | 66.2% | 97.6% | 84.9% | 85.9% | 51.2% | viability at 10 µM [9, 31]: 103%; viability at 10 µM [10, 32]: 97.5%; viability at 10 µM [11, 33]: 77.6%; viability at 10 µM [12, 34]: 85%
CC(C)(C)c1nc(-c2cccc(NS(=O)(=O)c3c(F)cccc3F)c2F)c(-c2ccnc(N)n2)s1 [Dabrafenib (GSK2118436), Dabrafenib] |  |  |  |  |  | significant inhibition effect | 70.5% |  |  |  |  |  |  | 100% | 91.3% | 134% | 72.9% | 42.1% | 90.1% | 94.1% | viability at 10 µM [9, 31]: 90.5%; viability at 10 µM [10, 32]: 78.5%; viability at 10 µM [11, 33]: 98.7%; viability at 10 µM [12, 34]: 73.6%
CC(=O)SCC(Cc1ccccc1)C(=O)NCC(=O)OCc1ccccc1 (stereo not drawn) [Racecadotril (Acetorphan), Racecadotril] |  |  |  |  |  | significant inhibition effect | 74.5% |  |  |  |  |  |  | 107% | 88.8% | 95.8% | 122% | 66.2% | 84% | 108% | viability at 10 µM [9, 31]: 65.6%; viability at 10 µM [10, 32]: 65.6%; viability at 10 µM [11, 33]: 97.4%; viability at 10 µM [12, 34]: 82.9%
Cc1cn([C@H]2C=C[C@@H](CO)O2)c(=O)[nH]c1=O [Stavudine] |  |  |  |  |  | significant inhibition effect | 70.7% |  |  |  |  |  |  | 73.5% | 97.1% | 38.9% | 96% | 56.1% | 39.2% | 56.6% | viability at 10 µM [9, 31]: 112%; viability at 10 µM [10, 32]: 98.1%; viability at 10 µM [11, 33]: 66.8%; viability at 10 µM [12, 34]: 50.2%
Cc1onc(-c2c(Cl)cccc2Cl)c1C(=O)N[C@@H]1C(=O)N2[C@@H]1SC(C)(C)[C@@H]2C(=O)O [Dicloxacillin Sodium] | 71.1% | 102% | 61.8% | 72.7% | 79% | significant inhibition effect | 92.4% | 147% | 45.3% | 84.3% | 60.1% | 66.4% | 68.4% |  |  |  |  |  |  |  | 
CC(=O)O[C@]1(C(C)=O)CC[C@H]2[C@@H]3C[C@H](C)C4=CC(=O)CC[C@]4(C)[C@H]3CC[C@@]21C [Medroxyprogesterone acetate] |  |  |  |  |  | significant inhibition effect | 65.9% |  |  |  |  |  |  | 82% | 78.6% | 60.5% | 51.7% | 81% | 72.3% | 69.3% | viability at 10 µM [9, 31]: 79.4%; viability at 10 µM [10, 32]: 70.4%; viability at 10 µM [11, 33]: 66.9%; viability at 10 µM [12, 34]: 38.6%
O=C1OC(CN2CCOCC2)CN1/N=C/c1ccc([N+](=O)[O-])o1 (stereo not drawn) [Furaltadone HCl] | 99.2% | 83.2% | 67.9% | 64.6% | 66% | significant inhibition effect | 62.2% | 68.2% | 103% | 81.3% | 64% | 72.6% | 83.1% |  |  |  |  |  |  |  | 
CC(=O)Oc1cc(C(F)(F)F)ccc1C(=O)O [Triflusal] | 87.5% | 103% | 112% | 93.3% | 95.9% | significant inhibition effect | 103% | 93.3% | 97.8% | 86.5% | 105% | 134% | 81.3% |  |  |  |  |  |  |  | 
CCOc1ccc2nc3cc(N)ccc3c(N)c2c1 [Ethacridine lactate monohydrate] |  |  |  |  |  | significant inhibition effect | 50.1% |  |  |  |  |  |  | 64.6% | 65.5% | 75.1% | 44.1% | 40.1% | 38.2% | 68.7% | viability at 10 µM [9, 31]: 46.8%; viability at 10 µM [10, 32]: 39.9%; viability at 10 µM [11, 33]: 49.7%; viability at 10 µM [12, 34]: 52.5%
Cc1cc(NS(=O)(=O)c2ccc(N)cc2)no1 [Sulfamethoxazole] | 44.9% | 115% | 43.9% | 99.4% | 44.3% | significant inhibition effect | 71.7% | 67.7% | 46.1% | 62.1% | 87.8% | 60.7% | 85.8% |  |  |  |  |  |  |  | 
